# Measured values reported in paper PMC7727669, “Platinum(II) Complexes with Bulky Disubstitute Triazolopyrimidines as Promising Materials for Anticancer Agents” (Materials, 2020).
# Where two headings read alike, the source gives them in different places.
# Experiments:
# [1] = cited from earlier work
# [2] = test system: non-small cell lung carcinoma (A549); test: In vitro antiproliferative activity, SRB test, A549; assay type: cell-based, human; conditions: A549, 72 h incubation, average of three determinations
# Method: (§1) The in vitro antiproliferative activity against three human tumor cell lines, namely, non-small cell lung carcinoma (A549) (ATCC, Rockville, MD, USA), […] human ductal breast epithelial tumor cells (T47D) (ATCC, Rockville, MD, USA) and colon cancer cells (LOVO) (ATCC, Rockville, MD, USA), and normal murine embryonic fibroblast cells (BALB/3T3) (ATCC, Rockville, MD, USA), was assessed.
# (§2) Cells were plated in 96-well sterile plates (Sarstedt, Costar) at a density of 10^4 cells per well (in 100 μL of culture medium) and incubated for 24 h. The tested compound was added in final concentrations ranging from 0.1 to 100 μg mL^−1, and the incubation was continued for an additional 72 h. The results of in vitro cytotoxic activity are expressed as an IC50 (the dose of compound (in μM) that inhibits proliferation rate of tumor cells by 50%) value compared to the untreated control cells. IC50 values are expressed as the averages of three independently reproduced experiments. The details of this technique were described by Skehan. The tests of the antiproliferative activity in vitro against both cell lines were performed with the SRB (sulforhodamine B) test using an automated microplate reader (Synergy H4 photometer, BioTek Instruments Inc., Winooski, VT, USA). Moreover, in vitro toxicity against normal murine fibroblast Balb3T3 cells was assessed.
# [3] = test system: colon cancer cells (LOVO); test: In vitro antiproliferative activity, SRB test, LoVo; assay type: cell-based, human; conditions: 72 h incubation, average of three determinations
# Method: as §1, §2
# [4] = test system: cisplatin-resistant human ductal breast epithelial tumor cells (T47D); test: In vitro antiproliferative activity, SRB test, T47D; assay type: cell-based; conditions: 72 h incubation, average of three determinations
# Method: as §1, §2
# [5] = test system: normal murine embryonic fibroblast cells (BALB/3T3); test: In vitro toxicity against normal fibroblasts, SRB test, BALB/3T3; assay type: cell-based; conditions: BALB/3T3 normal cells, 72 h incubation, average of three determinations
# Method: as §2, with “The results of in vitro cytotoxic activity are expressed as an IC50 (the dose of compound (in μM) that inhibits proliferation rate of tumor cells by 50%) value compared to the untreated control cells.” left out
# [6] = test system: human ovarian carcinoma cell lines resistant to cisplatin (A2780R); design: method as in PMID 19783310; conditions: read-out: in vitro activity against A2780R; cited from earlier work
# [7] = Partition coefficient (logP), shake-flask method; assay type: physicochemical; conditions: n-octanol / aqueous 0.9% NaCl, UV-Vis
# Method: The lipophilicity (logP) of the platinum(II) compounds was determined using the shake–flask method. At first, aqueous (0.9% w/v) sodium chloride and organic (n–octanol) phases were saturated for 1 week. […] An equal volume of immiscible solvent was added, and the solutions were mixed mechanically in plastic tubes for 30 min. Samples were centrifuged (6000 rpm, 15 min). After separation, the phases were analyzed by UV–Vis spectroscopy to determine the amount of the compound in each phase. The absorption values before and after shaking were compared, and based on the Lambert–Beer law, the partition coefficient in both phases for each compound was calculated to determine the logP values. The procedures were repeated threefold.
Compound,"logP ([1]; symmetrical malonato complexes, previous work)",log P ([1]; literature data for platinum(II) drugs),IC50 [2] [µM],IC50 [3] [µM],IC50 [4] [µM],IC50 [5] [µM],IC50 [6] [µM],log P [7]
CC(C)(C)c1cc(C(C)(C)C)n2ncnc2n1.CC(C)(C)c1cc(C(C)(C)C)n2ncnc2n1.O=C([O-])CC(=O)[O-].[Pt+2] [[Pt(mal)(dbtp)2]],2.07,,,,,,,
N.N.O=C([O-])C1(C(=O)[O-])CCC1.[Pt+2] [carboplatin],,−2.30,,,,,,
"N.N.[Cl][Pt][Cl] [cisplatin, reference compound]",,,9 ± 1.1,0.84 ± 0.3,3.11 ± 1.2,3.2 ± 1.5,20.4,
"(Dimethylsulfoxide-κS)(5,7-ditertbutyl-1,2,4-triazolo[1,5-a]pyrimidine-κN(3))(cyclobutane-1,1- dicarboxylato-κ^2O,O′))platinum(II) monoaqua hydrate [Complex 3]",,,5 ± 0.9,20 ± 2.8,6.6 ± 4.8,10.2 ± 6.2,,−1.69
"(Dimethylsulfoxide-κS)(5,7-ditertbutyl-1,2,4-triazolo[1,5-a]pyrimidine-κN(3))(malonato-κ^2O,O′) platinum(II) [Complex 1]",,,16.3 ± 9.9,27.9 ± 1,17.1 ± 10.5,30.2 ± 22.6,,−1.58
"(Dimethylsulfoxide-κS)(7-isobutyl-5-methyl-1,2,4-triazolo[1,5-a]pyrimidine-κN(3))(cyclo- butane-1,1-dicarboxylato-κ^2O,O′))platinum(II) monoaqua hydrate [Complex 4]",,,57.3 ± 11.3,41.2 ± 1.6,21.9 ± 17.2,73.4 ± 29.7,,−1.23
"(Dimethylsulfoxide-κS)(7-isobutyl-5-methyl-1,2,4-triazolo[1,5-a]pyrimidine-κN(3))(malonato- κ^2O,O′)platinum(II) monoaqua hydrate [Complex 2]",,,57.8 ± 13.5,38.4 ± 1.8,42.6 ± 19,46 ± 40.7,,−0.65
